Data taken from the supplement of paper PMC11424490.

Experiments:
NCI-H358 [1] = experiment: relative IC50 of cell viability (CellTiter-Glo); higher = less potent
Outline: (§1)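 The NCI-H2122, SW837 and NCI-H358 cell lines were plated in 384-well format at 800, 500 and 500 cells/well respectively, in 60 µl. After a 24 h wait, single compounds were applied in dose series by acoustic dispensing, and plates were incubated 72 h, or 144 h in the case of SW837. Readout was CellTiter-Glo luminescence on an EnVision reader following 15 min shaking, normalised to DMSO controls. Both the relative IC50 (a mean over replicates) and the lower plateau derive from a four-parameter nonlinear fit.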

SW837 [2] = experiment: fitted bottom plateau of viability curve, % of DMSO control; higher = less maximal inhibition; extreme values may be limits of the assay
Outline: as §1

NCI-H2122 [3] = experiment: as above
Outline: as §1

NCI-H358 [4] = experiment: as above
Outline: as §1

SW837 [5] = experiment: combination cScore with adagrasib (Bliss gap around IC50) (%PoC); higher = stronger additive effect
Outline: (§2)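 NCI-H2122, NCI-H358 and SW837 cells were plated in 384-well plates at 500 or 800 cells per well, treated with concentration matrices after 24 h, and grown for 72 h (SW837 for 144 h). Luminescence from CellTiter-Glo was expressed as percent of control relative to vehicle wells and fitted with four-parameter curves. The score is the mean Bliss-independence gap, expected minus measured viability, across a field around both monotherapy IC50 values, or across the top concentrations where no IC50 was reached.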

NCI-H2122 [6] = experiment: as above
Outline: as §2

NCI-H358 [7] = experiment: as above
Outline: as §2

Structure (SMILES)	relative IC50 of cell viability (NCI-H358 [1])	fitted bottom plateau of viability curve (SW837 [2])	fitted bottom plateau of viability curve (NCI-H2122 [3])	fitted bottom plateau of viability curve (NCI-H358 [4])	combination cScore with adagrasib (SW837 [5])	combination cScore with adagrasib (NCI-H2122 [6])	combination cScore with adagrasib (NCI-H358 [7])
CCN(CCCOc1ccc2c(Nc3cc(CC(=O)Nc4cccc(F)c4)[nH]n3)ncnc2c1)CCOP(=O)(O)O [AZD-1152] (top concentration tested 1000.1 nM)	28 nM	62%	57.4%	60.1%	–	–	–
C=CC(=O)N1CCC[C@@H](n2nc(-c3ccc(Oc4ccccc4)cc3)c3c(N)ncnc32)C1 [Ibrutinib] (top concentration tested 10000 nM)	262 nM	76.6%	76.7%	12.4%	–	–	–
CS(=O)(=O)CCNCc1ccc(-c2ccc3ncnc(Nc4ccc(OCc5cccc(F)c5)c(Cl)c4)c3c2)o1 [Lapatinib] + C=C(F)C(=O)N1CCN(c2nc(OC[C@@H]3CCCN3C)nc3c2CCN(c2cccc4cccc(Cl)c24)C3)C[C@@H]1CC#N [adagrasib]	–	–	–	–	11.2	18.6	11.3
Cc1c(CN2CCC(Nc3ncnc4sc(CC(F)(F)F)cc34)CC2)ccc2[nH]c(C#N)cc12 [MI-463] (top concentration tested 5000 nM)	3910 nM	86.6%	79.5%	0%	–	–	–
Cc1c(CN2CCC(Nc3ncnc4sc(CC(F)(F)F)cc34)CC2)ccc2[nH]c(C#N)cc12 [MI-463] + C=C(F)C(=O)N1CCN(c2nc(OC[C@@H]3CCCN3C)nc3c2CCN(c2cccc4cccc(Cl)c24)C3)C[C@@H]1CC#N [adagrasib]	–	–	–	–	0.27	19.7	5.31
NC1(c2ccc(-c3nc4ccn5c(=O)[nH]nc5c4cc3-c3ccccc3)cc2)CCC1 [MK-2206] + C=C(F)C(=O)N1CCN(c2nc(OC[C@@H]3CCCN3C)nc3c2CCN(c2cccc4cccc(Cl)c24)C3)C[C@@H]1CC#N [adagrasib]	–	–	–	–	12.2	8	6.39
CC(C)n1nc(-c2ccc3oc(N)nc3c2)c2c(N)ncnc21 [MLN-0128] + C=C(F)C(=O)N1CCN(c2nc(OC[C@@H]3CCCN3C)nc3c2CCN(c2cccc4cccc(Cl)c24)C3)C[C@@H]1CC#N [adagrasib]	–	–	–	–	9.3	7.57	0.5
O=C1c2c(O)ccc(O)c2C(=O)c2c(NCCNCCO)ccc(NCCNCCO)c21 [Mitoxantrone] + C=C(F)C(=O)N1CCN(c2nc(OC[C@@H]3CCCN3C)nc3c2CCN(c2cccc4cccc(Cl)c24)C3)C[C@@H]1CC#N [adagrasib]	–	–	–	–	5.32	12.9	0.02
COc1cc(N2CCC(N3CCN(C)CC3)CC2)ccc1Nc1ncc(Cl)c(Nc2ccccc2S(=O)(=O)C(C)C)n1 [NVP-TAE684] + C=C(F)C(=O)N1CCN(c2nc(OC[C@@H]3CCCN3C)nc3c2CCN(c2cccc4cccc(Cl)c24)C3)C[C@@H]1CC#N [adagrasib]	–	–	–	–	23.6	12.8	3.66
O=C(c1cc(Cc2n[nH]c(=O)c3ccccc23)ccc1F)N1CCN(C(=O)C2CC2)CC1 [Olaparib] + C=C(F)C(=O)N1CCN(c2nc(OC[C@@H]3CCCN3C)nc3c2CCN(c2cccc4cccc(Cl)c24)C3)C[C@@H]1CC#N [adagrasib]	–	–	–	–	2.95	5.71	1.38
C=CC(=O)Nc1cc(Nc2nccc(-c3cn(C)c4ccccc34)n2)c(OC)cc1N(C)CCN(C)C [Osimertinib] + C=C(F)C(=O)N1CCN(c2nc(OC[C@@H]3CCCN3C)nc3c2CCN(c2cccc4cccc(Cl)c24)C3)C[C@@H]1CC#N [adagrasib]	–	–	–	–	26.1	10	8.16
O=C(/C=C/N1C[C@H]2C[C@@H]1CN2c1ccccn1)c1ccccc1O [PFI-3] + C=C(F)C(=O)N1CCN(c2nc(OC[C@@H]3CCCN3C)nc3c2CCN(c2cccc4cccc(Cl)c24)C3)C[C@@H]1CC#N [adagrasib]	–	–	–	–	-2.21	15.8	-3.19
O=C(c1c(F)ccc(NS(=O)(=O)N2CC[C@@H](F)C2)c1F)c1c[nH]c2ncc(-c3cnc(C4CC4)nc3)cc12 [PLX8394] + C=C(F)C(=O)N1CCN(c2nc(OC[C@@H]3CCCN3C)nc3c2CCN(c2cccc4cccc(Cl)c24)C3)C[C@@H]1CC#N [adagrasib]	–	–	–	–	-2.23	17.5	0.57
CC(=O)c1c(C)c2cnc(Nc3ccc(N4CCNCC4)cn3)nc2n(C2CCCC2)c1=O [Palbociclib] (top concentration tested 5000 nM)	859 nM	93.5%	59.8%	34.2%	–	–	–
CC(=O)c1c(C)c2cnc(Nc3ccc(N4CCNCC4)cn3)nc2n(C2CCCC2)c1=O [Palbociclib] + C=C(F)C(=O)N1CCN(c2nc(OC[C@@H]3CCCN3C)nc3c2CCN(c2cccc4cccc(Cl)c24)C3)C[C@@H]1CC#N [adagrasib]	–	–	–	–	19.2	8.54	2.62
Cc1ccc(C(=O)Nc2ccc(CN3CCN(C)CC3)c(C(F)(F)F)c2)cc1C#Cc1cnc2cccnn12 [Ponatinib] + C=C(F)C(=O)N1CCN(c2nc(OC[C@@H]3CCCN3C)nc3c2CCN(c2cccc4cccc(Cl)c24)C3)C[C@@H]1CC#N [adagrasib]	–	–	–	–	-0.53	14.4	3.62
CCc1nc(N)nc(N)c1-c1ccc(Cl)cc1 [Pyrimethamine] + C=C(F)C(=O)N1CCN(c2nc(OC[C@@H]3CCCN3C)nc3c2CCN(c2cccc4cccc(Cl)c24)C3)C[C@@H]1CC#N [adagrasib]	–	–	–	–	-3.37	15.2	-2.05
CC1(N)CCN(c2cnc(-c3cccc(Cl)c3Cl)c(N)n2)CC1 [SHP099] + C=C(F)C(=O)N1CCN(c2nc(OC[C@@H]3CCCN3C)nc3c2CCN(c2cccc4cccc(Cl)c24)C3)C[C@@H]1CC#N [adagrasib]	–	–	–	–	14.3	19.4	1.39
CCc1c2c(nc3ccc(O)cc13)-c1cc3c(c(=O)n1C2)COC(=O)[C@]3(O)CC [SN-38] + C=C(F)C(=O)N1CCN(c2nc(OC[C@@H]3CCCN3C)nc3c2CCN(c2cccc4cccc(Cl)c24)C3)C[C@@H]1CC#N [adagrasib]	–	–	–	–	-1.14	6.93	-1.51
C[C@@H]1OCC2(CCN(c3cnc(Sc4ccnc(N)c4Cl)c(N)n3)CC2)[C@@H]1N [TNO155] + C=C(F)C(=O)N1CCN(c2nc(OC[C@@H]3CCCN3C)nc3c2CCN(c2cccc4cccc(Cl)c24)C3)C[C@@H]1CC#N [adagrasib]	–	–	–	–	31	49	9.32
CC/C(=C(\c1ccccc1)c1ccc(OCCN(C)C)cc1)c1ccccc1 [Tamoxifen] + C=C(F)C(=O)N1CCN(c2nc(OC[C@@H]3CCCN3C)nc3c2CCN(c2cccc4cccc(Cl)c24)C3)C[C@@H]1CC#N [adagrasib]	–	–	–	–	5.45	10.3	6.27
Cc1nc(-c2cn3c(n2)-c2ccc(-c4cnn(C(C)(C)C(N)=O)c4)cc2OCC3)n(C(C)C)n1 [Taselisib] + C=C(F)C(=O)N1CCN(c2nc(OC[C@@H]3CCCN3C)nc3c2CCN(c2cccc4cccc(Cl)c24)C3)C[C@@H]1CC#N [adagrasib]	–	–	–	–	26.6	18.1	7.08
COc1cc2/c(=N/c3ccc(Br)cc3F)nc[nH]c2cc1OCC1CCN(C)CC1 [Vandetanib] + C=C(F)C(=O)N1CCN(c2nc(OC[C@@H]3CCCN3C)nc3c2CCN(c2cccc4cccc(Cl)c24)C3)C[C@@H]1CC#N [adagrasib]	–	–	–	–	27.6	21.3	7.95
Oc1nc(-c2ccc(C(F)(F)F)cc2)nc2c1CSCC2 [XAV939] + C=C(F)C(=O)N1CCN(c2nc(OC[C@@H]3CCCN3C)nc3c2CCN(c2cccc4cccc(Cl)c24)C3)C[C@@H]1CC#N [adagrasib]	–	–	–	–	5.74	23.8	4.11
CCNC(=O)C[C@@H]1N=C(c2ccc(Cl)cc2)c2cc(OC)ccc2-n2c(C)nnc21 [iBET-762] + C=C(F)C(=O)N1CCN(c2nc(OC[C@@H]3CCCN3C)nc3c2CCN(c2cccc4cccc(Cl)c24)C3)C[C@@H]1CC#N [adagrasib]	–	–	–	–	0.28	22.7	5.14
